ChEMBL document CHEMBL1821665, “Structure-based design and optimization of potent renin inhibitors on 5- or 7-azaindole-scaffolds” (Bioorg Med Chem Lett, 2011)
pIC50: −log10 of the molar value.

Key:
Renin [1] = target: T1, Renin (Homo sapiens, UniProt P00797); test: Inhibition of recombinant human renin using Dabcyl-gamma-Abu-Ile-His-Pro-Phe-His-Leu-Val-Ile-His-Thr-EDANS as substrate after 2 hrs by spectrofluorometry
T1 sequence (P00797 whole entry): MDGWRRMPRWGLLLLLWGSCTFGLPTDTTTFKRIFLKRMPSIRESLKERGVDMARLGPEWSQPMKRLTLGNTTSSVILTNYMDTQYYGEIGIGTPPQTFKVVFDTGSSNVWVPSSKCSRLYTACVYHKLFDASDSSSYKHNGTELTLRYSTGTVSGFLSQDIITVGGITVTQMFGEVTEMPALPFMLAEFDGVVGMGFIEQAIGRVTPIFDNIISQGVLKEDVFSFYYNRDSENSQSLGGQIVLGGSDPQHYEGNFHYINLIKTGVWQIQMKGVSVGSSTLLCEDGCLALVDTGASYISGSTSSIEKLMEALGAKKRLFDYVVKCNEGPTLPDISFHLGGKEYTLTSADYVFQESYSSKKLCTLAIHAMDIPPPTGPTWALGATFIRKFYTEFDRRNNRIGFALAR

Renin [2] = target: T1, Renin; test: Inhibition of recombinant human renin using Dabcyl-gamma-Abu-Ile-His-Pro-Phe-His-Leu-Val-Ile-His-Thr-EDANS as substrate preincubated for 30 mins followed by 30 mins incubation in mouse C57BL/6 plasma by spectrofluorometry
Renin [3] = target: T1, Renin; test: Inhibition of recombinant human renin using Dabcyl-gamma-Abu-Ile-His-Pro-Phe-His-Leu-Val-Ile-His-Thr-EDANS as substrate preincubated for 30 mins followed by 30 mins incubation in human plasma by spectrofluorometry
[4] = Apparent permeability from apical to basolateral side of human Caco2/TC7 cells at 20 uM after 2 hrs in presence of 0.5 to 5% BSA at pH 6.5 to 7.4; format: ADME, cell-based; conditions: Caco-2, pH 6.5

Row | Compound | pIC50 (Renin [1]) | other results
1 | O=C(c1c(Oc2ccccc2)n(-c2ccccc2)c2ncccc12)N1CCNCC1 | 5.74 | –
2 | Cc1ccccc1Oc1c(C(=O)N2CCNCC2)c2cccnc2n1-c1ccccc1 | 7.01 | –
3 | O=C(c1c(Oc2ccccc2F)n(-c2ccccc2)c2ncccc12)N1CCNCC1 | 5.30 | –
4 | Cc1cccc(F)c1Oc1c(C(=O)N2CCNCC2)c2cccnc2n1-c1ccccc1 | 6.64 | –
5 | Cc1ccc(F)cc1Oc1c(C(=O)N2CCNCC2)c2cccnc2n1-c1ccccc1 | 6.40 | –
6 | Cc1c(F)cc(F)cc1Oc1c(C(=O)N2CCNCC2)c2cccnc2n1-c1ccccc1 | 6.30 | –
7 | O=C(c1c(Cc2ccccc2)n(-c2ccccc2)c2ncccc12)N1CCNCC1 | 5.19 | –
8 | Cc1ccc(F)cc1Oc1c(C(=O)N2CCNCC2)c2cc(O)cnc2n1-c1ccccc1 | 8.22 | pIC50 (Renin [2]): 7.24; pIC50 (Renin [3]): 6.72; Papp A→B at 2 h, 20 µM [4]: 0.45 ×10⁻⁶ cm/s
9 | Cc1c(F)cccc1Cc1c(C(=O)N2CCNCC2)c2cc(O)cnc2n1-c1ccccc1 | 8.22 | pIC50 (Renin [2]): 6.80; pIC50 (Renin [3]): 7.02
10 | COc1cnc2c(c1)c(C(=O)N1CCNCC1)c(Cc1cccc(F)c1C)n2-c1ccccc1 | 5.33 | –
11 | COc1ccc2c(C(=O)N3CCNCC3)c(Oc3cc(F)ccc3C)n(-c3ccccc3)c2n1 | 7.82 | –
12 | CCc1ccnc2c1c(C(=O)N1CCNCC1)c(Oc1cc(F)ccc1C)n2-c1ccccc1 | 5.91 | –
13 | CCc1ccnc2c1c(C(=O)N1CCNCC1)c(Cc1cccc(F)c1C)n2-c1ccccc1 | 7.05 | –
14 | CCCc1ccnc2c1c(C(=O)N1CCNCC1)c(Oc1c(C)cccc1C)n2-c1ccccc1 | 6.73 | –
15 | CCCc1ccnc2c1c(C(=O)N1CCNCC1)c(Cc1cccc(F)c1C)n2-c1ccccc1 | 6.66 | –
16 | Cc1ccccc1Oc1c(C(=O)N2CCNCC2)c2cnccc2n1-c1ccccc1 | 6.07 | –
17 | Cc1ccc(F)cc1Oc1c(C(=O)N2CCNCC2)c2cnccc2n1-c1ccccc1 | 6.91 | –
18 | Cc1c(F)cccc1Oc1c(C(=O)N2CCNCC2)c2cnccc2n1-c1ccccc1 | 6.74 | –

Row | Compound | pIC50 (Renin [1]) | other results
19 | Cc1c(F)cc(F)cc1Oc1c(C(=O)N2CCNCC2)c2cnccc2n1-c1ccccc1 | 6.19 | –
20 | O=C(c1c(Cc2ccccc2)n(-c2ccccc2)c2ccncc12)N1CCNCC1 | 5.47 | –
21 | Cc1ccccc1Cc1c(C(=O)N2CCNCC2)c2cnccc2n1-c1ccccc1 | 6.28 | –
22 | Cc1c(F)cccc1Cc1c(C(=O)N2CCNCC2)c2cnccc2n1-c1ccccc1 | 8.10 | pIC50 (Renin [2]): 6.39; pIC50 (Renin [3]): 6.70; Papp A→B at 2 h, 20 µM [4]: 0.64 ×10⁻⁶ cm/s
23 | COc1cc2c(cn1)c(C(=O)N1CCNCC1)c(Cc1cccc(F)c1C)n2C1CCCCC1 | 6.82 | –
24 | COc1cc2c(cn1)c(C(=O)N1CCNCC1)c(Cc1cccc(F)c1C)n2-c1ccccc1 | 8.22 | pIC50 (Renin [3]): 6.48; Papp A→B at 2 h, 20 µM [4]: 2.2 ×10⁻⁶ cm/s
25 | COc1cc2c(cn1)c(C(=O)N1CCNCC1)c(Oc1cc(F)ccc1C)n2-c1ccccc1 | 7.14 | –
26 | Cc1ccc(F)cc1Oc1c(C(=O)N2CCNCC2)c2cnc(O)cc2n1-c1ccccc1 | 7.62 | –
27 | Cc1c(F)cccc1Cc1c(C(=O)N2CCNCC2)c2cnc(O)cc2n1C1CCCCC1 | 6.94 | –
28 | Cc1c(F)cccc1Cc1c(C(=O)N2CCNCC2)c2cnc(O)cc2n1-c1ccccc1 | 7.06 | –
29 | COc1cc2c(cn1)c(C(=O)N1CCNCC1)c(Oc1c(C)cccc1C)n2C1CCCCC1 | 7.00 | –
30 | Cc1ccc(F)c(C)c1Oc1c(C(=O)N2CCNCC2)c2cnc(O)cc2n1C1CCCCC1 | 7.01 | –
31 | Cc1ccc(F)cc1Oc1c(C(=O)N2CCN[C@@H](C)C2)c2cnc(O)cc2n1C1CCCCC1 | 7.96 | –
32 | Cc1ccc(F)c(C)c1Oc1c(C(=O)N2CCN[C@@H](C)C2)c2c[nH]c(=O)cc2n1C1CCCCC1 | 7.43 | –
33 | Cc1c(F)cccc1Cc1c(C(=O)N2CCN[C@@H](C)C2)c2c[nH]c(=O)cc2n1C1CCCCC1 | 6.81 | –
34 | COC[C@H]1CN(C(=O)c2c(Cc3cccc(F)c3C)n(C3CCCCC3)c3cc(OC)ncc23)CCN1 | 5.39 | –
35 | COc1cc2c(cn1)c(C(=O)N1CCN[C@@H](CO)C1)c(Cc1cccc(F)c1C)n2C1CCCCC1 | 5.49 | –
